{
  "source": "patent US3931147A",
  "about": "“Water-soluble derivatives of sodium mannoheptonate” (International Telephone and Telegraph Corporation, priority 1973, dated 1976)",
  "test": "Swelling of clay in water: viscosity and gel strength of sodium bentonite dispersion",
  "settings": "in words",
  "protocol": "Additional tests were conducted to determine the utility of the metal complexes of the invention on the swelling of clay in water. 6 grams of the product were dissolved in 300 ml. of distilled water, and the pH of the solution was adjusted to 10.5 with sodium hydroxide. 30 grams of sodium bentonite were then added and the mixture was bottled and rolled 16 hours at 70°C. Viscosity and gel strengths were then determined using a Fann model 35 viscometer. Lowered viscosity and gels indicate decreased swelling and viscosity building.",
  "data": [
    {"substance": "aluminum", "values": [
      {"measurement": "inhibiting the swelling of bentonite clays", "value": "most effective"}
    ]}
  ]
}
